According to the supplement of paper PMC10307832:

How the values were obtained:
Assay in all cases: relative viability (nuclei count vs DMSO), 5 days (fraction); higher = more cells survive
[1] = compound: CNC(=O)c1ccccc1Sc1ccc2c(/C=C/c3ccccn3)n[nH]c2c1 [Axitinib] + Cc1cc(Nc2cc(N3CCN(C)CC3)nc(Sc3ccc(NC(=O)C4CC4)cc3)n2)n[nH]1 [Tozasertib] (partner 0.1 µM)
How it was run: (§1)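 Nuclei were stained with Hoechst during a one-step fixation (final 0.05% Triton X-100, 1% formaldehyde, 1 ug/ml Hoechst) carried out 5 days after dosing, then counted on 4× images. The cells, lung cancer lines in 1536-well plates, had been dosed by pin tool the day after seeding with one drug alone or a fixed anchor-drug dose plus five library-drug doses (not always all listed) in √10 steps. Relative viability is the nuclei count in treated wells divided by that in vehicle wells, and each value is the median of duplicate plates.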

[2] = compound: Nc1nc(Nc2ccc3c(c2)CC[C@@H](N2CCCC2)CC3)nn1-c1cc2c(nn1)-c1ccccc1CCC2 [Bemcentinib] + CC1(C)CCC(c2ccc(Cl)cc2)=C(CN2CCN(c3ccc(C(=O)NS(=O)(=O)c4ccc(N[C@H](CCN5CCOCC5)CSc5ccccc5)c(S(=O)(=O)C(F)(F)F)c4)cc3)CC2)C1 [Navitoclax] (partner 0.5 µM)
How it was run: as §1

[3] = compound: CNC(=O)c1ccccc1Sc1ccc2c(/C=C/c3ccccn3)n[nH]c2c1 [Axitinib] + CC(C)C[C@H](NC(=O)[C@H](Cc1ccccc1)NC(=O)c1cnccn1)B(O)O [Bortezomib] (partner 0.002 µM)
How it was run: as §1

[4] = compound: Nc1nc(Nc2ccc3c(c2)CC[C@@H](N2CCCC2)CC3)nn1-c1cc2c(nn1)-c1ccccc1CCC2 [Bemcentinib] + Nc1nc2[nH]cc(CCc3ccc(C(=O)N[C@@H](CCC(=O)O)C(=O)O)cc3)c2c(=O)[nH]1 [Pemetrexed] (partner 0.2 µM)
How it was run: as §1

LXF-289
relative viability ([1]; first compound 0.005 µM): 0.253
relative viability ([1]; first compound 0.01581 µM): 0.175
relative viability ([1]; first compound 0.05 µM): 0.219
relative viability ([1]; first compound 0.1581 µM): 0.253
relative viability ([1]; first compound 0.5 µM): 0.317
relative viability ([2]; first compound 0.04 µM): 0.955
relative viability ([2]; first compound 0.1265 µM): 0.914
relative viability ([2]; first compound 0.4 µM): 0.979
relative viability ([2]; first compound 1.265 µM): 1
relative viability ([2]; first compound 4 µM): 0.961
relative viability ([3]; first compound 0.005 µM): 0.977
relative viability ([3]; first compound 0.01581 µM): 0.918
relative viability ([3]; first compound 0.05 µM): 0.974
relative viability ([3]; first compound 0.1581 µM): 0.974
relative viability ([3]; first compound 0.5 µM): 1
relative viability ([4]; first compound 0.04 µM): 0.907
relative viability ([4]; first compound 0.1265 µM): 0.974
relative viability ([4]; first compound 0.4 µM): 0.984
relative viability ([4]; first compound 1.265 µM): 0.993
relative viability ([4]; first compound 4 µM): 0.92

SK-LU-1
relative viability ([1]; first compound 0.005 µM): 0.41
relative viability ([1]; first compound 0.01581 µM): 0.345
relative viability ([1]; first compound 0.05 µM): 0.333
relative viability ([1]; first compound 0.1581 µM): 0.375
relative viability ([1]; first compound 0.5 µM): 0.47
relative viability ([2]; first compound 0.04 µM): 0.867
relative viability ([2]; first compound 0.1265 µM): 0.986
relative viability ([2]; first compound 0.4 µM): 0.894
relative viability ([2]; first compound 1.265 µM): 0.807
relative viability ([2]; first compound 4 µM): 0.615
relative viability ([3]; first compound 0.005 µM): 1.29
relative viability ([3]; first compound 0.01581 µM): 1.2
relative viability ([3]; first compound 0.05 µM): 1.43
relative viability ([3]; first compound 0.1581 µM): 1.08
relative viability ([3]; first compound 0.5 µM): 1.08
relative viability ([4]; first compound 0.04 µM): 1.02
relative viability ([4]; first compound 0.1265 µM): 1.04
relative viability ([4]; first compound 0.4 µM): 1.08
relative viability ([4]; first compound 1.265 µM): 1.08
relative viability ([4]; first compound 4 µM): 0.984

NCI-H23
relative viability ([1]; first compound 0.005 µM): 0.421
relative viability ([1]; first compound 0.01581 µM): 0.431
relative viability ([1]; first compound 0.05 µM): 0.442
relative viability ([1]; first compound 0.1581 µM): 0.44
relative viability ([1]; first compound 0.5 µM): 0.8
relative viability ([2]; first compound 0.04 µM): 0.779
relative viability ([2]; first compound 0.1265 µM): 0.869
relative viability ([2]; first compound 0.4 µM): 1.08
relative viability ([2]; first compound 1.265 µM): 0.813
relative viability ([2]; first compound 4 µM): 0.778
relative viability ([3]; first compound 0.005 µM): 1.06
relative viability ([3]; first compound 0.01581 µM): 1.09
relative viability ([3]; first compound 0.05 µM): 1
relative viability ([3]; first compound 0.1581 µM): 1.03
relative viability ([3]; first compound 0.5 µM): 1.02
relative viability ([4]; first compound 0.04 µM): 0.626
relative viability ([4]; first compound 0.1265 µM): 0.724
relative viability ([4]; first compound 0.4 µM): 0.941
relative viability ([4]; first compound 1.265 µM): 0.763
relative viability ([4]; first compound 4 µM): 0.738

CAL-12T
relative viability ([1]; first compound 0.005 µM): 0.417
relative viability ([1]; first compound 0.01581 µM): 0.363
relative viability ([1]; first compound 0.05 µM): 0.34
relative viability ([1]; first compound 0.1581 µM): 0.365
relative viability ([1]; first compound 0.5 µM): 0.394
relative viability ([2]; first compound 0.04 µM): 1.12
relative viability ([2]; first compound 0.1265 µM): 1.28
relative viability ([2]; first compound 0.4 µM): 1.25
relative viability ([2]; first compound 1.265 µM): 1.19
relative viability ([2]; first compound 4 µM): 1.32
relative viability ([3]; first compound 0.005 µM): 1.03
relative viability ([3]; first compound 0.01581 µM): 0.978
relative viability ([3]; first compound 0.05 µM): 0.955
relative viability ([3]; first compound 0.1581 µM): 1.11
relative viability ([3]; first compound 0.5 µM): 0.965
relative viability ([4]; first compound 0.04 µM): 1.11
relative viability ([4]; first compound 0.1265 µM): 1.47
relative viability ([4]; first compound 0.4 µM): 1.09
relative viability ([4]; first compound 1.265 µM): 1.1
relative viability ([4]; first compound 4 µM): 1.13
